Molecular target: T1, Farnesyl pyrophosphate synthase (Homo sapiens, UniProt P14324)
T1 sequence (P14324 whole entry): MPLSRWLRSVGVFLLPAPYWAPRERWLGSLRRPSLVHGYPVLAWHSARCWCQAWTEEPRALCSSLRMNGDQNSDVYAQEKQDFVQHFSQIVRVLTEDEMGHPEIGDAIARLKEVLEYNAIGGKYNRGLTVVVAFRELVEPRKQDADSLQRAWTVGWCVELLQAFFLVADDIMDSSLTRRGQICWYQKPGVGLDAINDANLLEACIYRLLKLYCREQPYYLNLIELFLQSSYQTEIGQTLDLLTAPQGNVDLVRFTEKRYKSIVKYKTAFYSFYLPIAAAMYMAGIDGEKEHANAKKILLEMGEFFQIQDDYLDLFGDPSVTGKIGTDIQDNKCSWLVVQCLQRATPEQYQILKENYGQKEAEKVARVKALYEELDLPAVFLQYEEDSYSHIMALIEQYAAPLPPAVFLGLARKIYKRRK
Experiment: Inhibition of N-terminal His-tagged human recombinant FPPS expressed in Escherichia coli BL21 (DE3) using GPP and [3H]-IPP as substrate preincubated for 10 mins before substrate addition measured after 8 mins by liquid scintillation counting

SMILES | IC50 [nM]
Cc1ccc(-c2cc3c(NC(Cc4ccccc4)P(=O)(O)O)ncnc3s2)cc1 (stereo unspecified) | 1400
Cc1ccc(-c2sc3ncnc4c3c2COP(=O)(O)CCC4)cc1 | ≥ 100000
Cc1ccc(-c2cc3c(NC(c4ccc5c(c4)CCO5)P(=O)(O)O)ncnc3s2)cc1 (stereo unspecified) | 3000
Cc1ccc(-c2sc3ncnc(NC(Cc4ccccc4)P(=O)(O)O)c3c2C)cc1 (stereo unspecified) | 2600
Cc1ccc(-c2cc3c(N[C@@H](Cc4ccccc4)P(=O)(O)O)ncnc3s2)cc1 | 4000
Cc1ccc(-c2cc3c(NC(Cc4cccc(F)c4)P(=O)(O)O)ncnc3s2)cc1 (stereo unspecified) | 1100
Cc1ccc(-c2cc3c(NC(CC4CCC4)P(=O)(O)O)ncnc3s2)cc1 (stereo unspecified) | 2800
Cc1ccc(-c2cc3c(NC(c4ccccc4)P(=O)(O)O)ncnc3s2)cc1 (stereo unspecified) | 4800
Cc1ccc(-c2cc3c(N[C@H](Cc4ccccc4)P(=O)(O)O)ncnc3s2)cc1 | 1000
Cc1ccc(-c2sc3ncncc3c2CP(=O)(O)O)cc1 | ≥ 100000
Cc1ccc(-c2cc3c(NC(CC4CCCCC4)P(=O)(O)O)ncnc3s2)cc1 (stereo unspecified) | 1600
Cc1ccc(-c2cc3c(N[C@@H](Cc4ccccc4)C(=O)NP(=O)(O)O)ncnc3s2)cc1 | 3700

The remaining lines, values ahead:

IC50 [nM] | SMILES
10000 | Cc1ccc(-c2sc3ncnc(NCP(=O)(O)O)c3c2C)cc1
2300 | Cc1ccc(-c2cc3c(NC(Cc4ccccc4)P(=O)(O)O)ncnc3s2)cc1Cl (stereo unspecified)
870 | COc1cc(C)c(F)cc1-c1cc2c(NC(Cc3cccc(F)c3)P(=O)(O)O)ncnc2s1 (stereo unspecified)
860 | Cc1ccc(-c2cc3c(NC(Cc4cccc(F)c4)P(=O)(O)O)ncnc3s2)cc1Cl (stereo unspecified)
8400 | COc1cc(C)c(Cl)cc1-c1cc2c(NC(c3ccccc3)P(=O)(O)O)ncnc2s1 (stereo unspecified)
5000 | Cc1ccc(-c2cc3c(NCP(=O)(O)O)ncnc3s2)cc1
4600 | COc1cc(C)c(Cl)cc1-c1cc2c(NC(Cc3ccccc3)P(=O)(O)O)ncnc2s1 (stereo unspecified)
4600 | COc1cc(C)c(F)cc1-c1cc2c(NCP(=O)(O)O)ncnc2s1
1500 | Cc1ccc(-c2cc3c(NC(Cc4cccc(F)c4)P(=O)(O)O)ncnc3s2)cc1F (stereo unspecified)
1600 | Cc1ccc(-c2cc3c(NC(c4ccccc4)P(=O)(O)O)ncnc3s2)cc1Cl (stereo unspecified)
> 100000 | O=P(O)(O)CNc1ncnc2sccc12
1600 | COc1cc(C)c(F)cc1-c1cc2c(NC(Cc3ccccc3)P(=O)(O)O)ncnc2s1 (stereo unspecified)
8800 | COc1cc(C)c(Cl)cc1-c1cc2c(NCP(=O)(O)O)ncnc2s1
1000 | COc1ccc(F)cc1-c1cc2c(NC(Cc3cccc(F)c3)P(=O)(O)O)ncnc2s1 (stereo unspecified)

From ChEMBL document CHEMBL4004852, “Pharmacophore Mapping of Thienopyrimidine-Based Monophosphonate (ThP-MP) Inhibitors of the Human Farnesyl Pyrophosphate Synthase” (J Med Chem, 2017)
